Six molecules from ChEMBL document CHEMBL5291721, “A preclinical secondary pharmacology resource illuminates target-adverse drug reaction associations of marketed drugs” (Nat Commun, 2023) can be followed below.

One test addresses T1, Androgen receptor (Rattus norvegicus, UniProt P15207).
T1 sequence (P15207 whole entry): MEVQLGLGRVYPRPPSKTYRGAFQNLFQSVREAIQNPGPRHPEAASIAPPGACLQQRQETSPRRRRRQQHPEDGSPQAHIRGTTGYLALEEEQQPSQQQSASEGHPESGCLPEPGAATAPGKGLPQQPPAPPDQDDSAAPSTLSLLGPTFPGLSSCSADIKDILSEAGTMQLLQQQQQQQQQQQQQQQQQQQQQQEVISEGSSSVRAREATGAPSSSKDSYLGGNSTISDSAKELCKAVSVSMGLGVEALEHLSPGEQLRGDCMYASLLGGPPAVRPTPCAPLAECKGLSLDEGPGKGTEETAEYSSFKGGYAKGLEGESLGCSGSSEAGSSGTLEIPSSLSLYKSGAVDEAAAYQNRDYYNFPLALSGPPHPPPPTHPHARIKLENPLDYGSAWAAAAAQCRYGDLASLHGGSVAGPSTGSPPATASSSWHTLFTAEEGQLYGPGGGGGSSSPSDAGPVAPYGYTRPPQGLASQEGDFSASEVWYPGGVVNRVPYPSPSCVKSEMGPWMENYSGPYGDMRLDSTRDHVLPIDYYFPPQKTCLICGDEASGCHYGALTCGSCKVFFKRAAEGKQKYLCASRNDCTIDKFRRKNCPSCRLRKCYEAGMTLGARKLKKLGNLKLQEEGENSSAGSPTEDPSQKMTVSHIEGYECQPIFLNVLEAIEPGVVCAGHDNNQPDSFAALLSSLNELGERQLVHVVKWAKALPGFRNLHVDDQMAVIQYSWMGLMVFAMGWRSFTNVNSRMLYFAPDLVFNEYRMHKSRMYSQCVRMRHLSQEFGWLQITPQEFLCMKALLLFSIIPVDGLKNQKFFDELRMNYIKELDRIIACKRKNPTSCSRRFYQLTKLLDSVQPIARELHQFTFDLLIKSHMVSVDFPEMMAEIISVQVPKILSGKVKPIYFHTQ
It is filed as functional.

Test [1] addresses 5-hydroxytryptamine receptor 2A (Homo sapiens, UniProt P28223). It is filed as functional, cell-based.
Test [2] addresses T2, Prostaglandin G/H synthase 1 (Rattus norvegicus, UniProt Q63921).
T2 sequence (Q63921 whole entry): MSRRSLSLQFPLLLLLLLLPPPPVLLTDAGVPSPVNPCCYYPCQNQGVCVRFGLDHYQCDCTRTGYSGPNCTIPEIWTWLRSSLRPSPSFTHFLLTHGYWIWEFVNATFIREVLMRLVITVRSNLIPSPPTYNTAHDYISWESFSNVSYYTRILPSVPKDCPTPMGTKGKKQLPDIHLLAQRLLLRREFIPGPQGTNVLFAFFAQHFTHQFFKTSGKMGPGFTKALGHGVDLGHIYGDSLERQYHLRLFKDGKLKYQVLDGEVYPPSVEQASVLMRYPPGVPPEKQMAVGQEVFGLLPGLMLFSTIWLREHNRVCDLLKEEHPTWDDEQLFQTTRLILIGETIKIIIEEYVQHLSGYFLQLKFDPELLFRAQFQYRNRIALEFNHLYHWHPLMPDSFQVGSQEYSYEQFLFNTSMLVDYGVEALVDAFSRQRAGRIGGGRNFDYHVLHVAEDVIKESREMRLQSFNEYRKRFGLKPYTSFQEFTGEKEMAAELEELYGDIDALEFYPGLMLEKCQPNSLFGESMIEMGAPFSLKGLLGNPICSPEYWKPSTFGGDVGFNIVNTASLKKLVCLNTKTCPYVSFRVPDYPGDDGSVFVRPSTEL
It is filed as functional.

The target in the next test is Motilin receptor (Homo sapiens, UniProt O43193).
The target in another test is Mu-type opioid receptor (Homo sapiens, UniProt P35372). Kind of test: biochemical. It is filed as functional.
Test [3] deals with 5-hydroxytryptamine receptor 2B (Homo sapiens, UniProt P41595).
Test [4] addresses Beta-2 adrenergic receptor (Homo sapiens, UniProt P07550). It is filed as functional, cell-based.

Each structure is given as a SMILES string.
Further: assay procedure not described here.

Chain of Motilin receptor (O43193 whole entry): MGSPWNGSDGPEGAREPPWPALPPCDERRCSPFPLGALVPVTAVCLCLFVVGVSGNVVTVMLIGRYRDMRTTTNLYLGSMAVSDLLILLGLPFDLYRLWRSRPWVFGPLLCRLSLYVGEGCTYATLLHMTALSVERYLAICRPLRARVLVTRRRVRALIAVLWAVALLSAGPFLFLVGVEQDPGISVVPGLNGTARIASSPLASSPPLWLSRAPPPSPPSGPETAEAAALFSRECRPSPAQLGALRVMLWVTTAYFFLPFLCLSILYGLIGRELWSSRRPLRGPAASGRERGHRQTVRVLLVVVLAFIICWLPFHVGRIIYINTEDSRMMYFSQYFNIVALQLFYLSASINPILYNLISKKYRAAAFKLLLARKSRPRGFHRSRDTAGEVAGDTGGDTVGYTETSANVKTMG
Chain of Beta-2 adrenergic receptor (P07550 whole entry): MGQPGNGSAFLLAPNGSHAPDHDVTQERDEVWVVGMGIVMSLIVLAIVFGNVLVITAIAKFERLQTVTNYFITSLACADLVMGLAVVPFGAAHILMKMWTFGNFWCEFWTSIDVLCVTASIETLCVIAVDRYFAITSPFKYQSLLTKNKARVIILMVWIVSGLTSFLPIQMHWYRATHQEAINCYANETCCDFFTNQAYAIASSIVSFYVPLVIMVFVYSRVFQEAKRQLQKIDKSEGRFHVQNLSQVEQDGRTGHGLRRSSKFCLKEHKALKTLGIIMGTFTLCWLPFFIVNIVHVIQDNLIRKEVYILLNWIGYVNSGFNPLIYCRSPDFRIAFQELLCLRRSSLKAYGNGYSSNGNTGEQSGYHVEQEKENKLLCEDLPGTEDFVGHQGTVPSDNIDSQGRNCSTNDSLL
Chain of 5-hydroxytryptamine receptor 2A (P28223 whole entry): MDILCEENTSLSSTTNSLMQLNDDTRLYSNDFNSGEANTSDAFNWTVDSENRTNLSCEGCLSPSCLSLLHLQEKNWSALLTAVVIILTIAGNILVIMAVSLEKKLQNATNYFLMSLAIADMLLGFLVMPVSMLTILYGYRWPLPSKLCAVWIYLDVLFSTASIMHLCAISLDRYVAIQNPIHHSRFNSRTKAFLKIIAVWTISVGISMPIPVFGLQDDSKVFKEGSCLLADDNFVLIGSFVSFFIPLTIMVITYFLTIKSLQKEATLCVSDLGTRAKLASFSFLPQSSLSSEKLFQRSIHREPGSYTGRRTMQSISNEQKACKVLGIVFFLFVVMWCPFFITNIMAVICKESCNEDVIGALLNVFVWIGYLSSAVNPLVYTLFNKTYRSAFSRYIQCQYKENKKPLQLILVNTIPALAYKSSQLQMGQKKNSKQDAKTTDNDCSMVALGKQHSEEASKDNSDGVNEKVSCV
Chain of Mu-type opioid receptor (P35372 whole entry): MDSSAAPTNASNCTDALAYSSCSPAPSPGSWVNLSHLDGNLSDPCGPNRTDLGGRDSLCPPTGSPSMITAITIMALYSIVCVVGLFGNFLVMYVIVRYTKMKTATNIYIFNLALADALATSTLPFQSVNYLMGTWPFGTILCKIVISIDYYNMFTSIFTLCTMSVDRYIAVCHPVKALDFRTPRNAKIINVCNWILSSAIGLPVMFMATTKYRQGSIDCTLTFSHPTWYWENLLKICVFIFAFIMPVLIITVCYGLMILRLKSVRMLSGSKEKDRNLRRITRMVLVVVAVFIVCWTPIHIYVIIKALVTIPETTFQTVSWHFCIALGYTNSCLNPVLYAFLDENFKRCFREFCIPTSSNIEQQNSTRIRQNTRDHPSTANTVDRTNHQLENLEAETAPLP
Chain of 5-hydroxytryptamine receptor 2B (P41595 whole entry): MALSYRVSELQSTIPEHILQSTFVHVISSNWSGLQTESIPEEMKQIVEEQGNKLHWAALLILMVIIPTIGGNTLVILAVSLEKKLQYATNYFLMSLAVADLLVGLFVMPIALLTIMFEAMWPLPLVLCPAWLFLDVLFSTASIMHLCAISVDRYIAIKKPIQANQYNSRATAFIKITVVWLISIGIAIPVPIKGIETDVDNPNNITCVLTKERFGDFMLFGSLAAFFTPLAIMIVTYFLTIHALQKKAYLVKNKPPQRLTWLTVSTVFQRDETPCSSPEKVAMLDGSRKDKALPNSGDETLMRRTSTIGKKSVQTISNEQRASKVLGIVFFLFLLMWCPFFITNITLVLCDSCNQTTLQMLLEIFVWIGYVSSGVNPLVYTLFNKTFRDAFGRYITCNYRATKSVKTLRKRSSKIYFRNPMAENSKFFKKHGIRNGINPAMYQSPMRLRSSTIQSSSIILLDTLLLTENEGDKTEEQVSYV

In the case of `CC(=O)Oc1cccc2c1C(=O)c1c(OC(C)=O)cc(C(=O)O)cc1C2=O` [DIACEREIN], the AC50 at Androgen receptor is > 10 µM; in test [1], 18 µM; in test [2], 0.9 µM; at Motilin receptor it was > 30 µM; on Mu-type opioid receptor, > 30 µM; in test [3], > 30 µM.

As to `Cc1ccc(S(=O)(=O)NC(=O)N[C@H]2[C@H]3CC[C@@](C)([C@H]2O)C3(C)C)cc1` [GLIBORNURIDE], the AC50 (on Androgen receptor; in test [1]; in test [4]; in test [2]; at Motilin receptor; on Mu-type opioid receptor) was > 30 µM each time.

On to `CCC(=O)O[C@H](CC(=O)O)C[N+](C)(C)C` [LEVOCARNITINE PROPIONATE], for which the AC50 (at Androgen receptor; in test [1]; in test [4]; in test [2]; at Motilin receptor; on Mu-type opioid receptor) was > 30 µM throughout.

In the case of `O=C(O)c1nn(Cc2ccc(Cl)cc2Cl)c2ccccc12` [LONIDAMINE], the AC50 was > 30 µM on Androgen receptor; > 30 µM in test [1]; > 10 µM in test [4]; > 30 µM in test [2]; > 30 µM at Motilin receptor; > 30 µM at Mu-type opioid receptor.

In the case of `CCCCC[C@H](O)CC[C@@H]1[C@H]2Cc3cccc(OCC(=O)O)c3C[C@H]2C[C@H]1O` [TREPROSTINIL], the AC50 (at Androgen receptor; in test [1]; in test [4]; in test [2]; on Motilin receptor; at Mu-type opioid receptor) was > 30 µM each time.

As for `CCCCCCCC(=O)CC[C@@H]1[C@@H](C/C=C\CCCC(=O)O)[C@@H](O)C[C@H]1O` [UNOPROSTONE], the concentration at half-maximal activity (AC50) (on Androgen receptor; in test [1]; in test [4]; in test [2]; at Motilin receptor; on Mu-type opioid receptor) was > 30 µM in each case.
